System: Plasmodium falciparum
Assay: GSK_TCMDC: Inhibition of Plasmodium falciparum 3D7 in whole erythrocytes, using parasite LDH activity as an index of growth.
Assay type: functional, organism-based
Conditions: Plasmodium falciparum, 3D7

O=C(Nc1ccc(OC2CCN(Cc3ccc(F)cc3)CC2)c(Cl)c1)c1ccccc1
XC50: 0.794 µM

CCn1ccc2c(N3CCCS3(=O)=O)cc(C(=O)N[C@@H](Cc3ccccc3)[C@H](O)CNC(C)(C)c3cccc(OC)c3)cc21
XC50: 0.0416 µM

CCN(CC)c1ccc(NC(=S)NC2CCN(CCCCCNC(=O)/C=C/c3ccc(Cl)c(Cl)c3)CC2)cc1
XC50: 0.883 µM

COc1ccc2ncc(F)c(CCN3CC(O)C(CNCc4ccc(F)cc4)C3)c2n1 (configuration not stated)
XC50: 0.821 µM

CCc1sc(N2CCN(C)CC2)nc1C(=O)Nc1ccc(F)cc1C(F)(F)F
XC50: 0.177 µM

CN1CCN(CC(=O)Nc2cccc(-c3ccc(-c4nc5cc(C(F)(F)F)ccc5[nH]4)s3)c2)CC1
XC50: 0.309 µM

O=C(/C=C/c1ccc(Cl)c(Cl)c1)N1CCC(CN2CCC(c3c[nH]c4cc(C(F)(F)F)ccc34)CC2)CC1
XC50: 0.796 µM

Cc1nc(C)c(C2CCC(c3ccc(Cl)cc3)CC2)c(O)c1Cl (configuration not stated)
XC50: 0.0518 µM

COC(=O)c1cccc(CNCc2cccc(-c3cccc(-c4nc5cccc(C)c5[nH]4)c3)c2)c1
XC50: 0.186 µM

Cc1ccccc1C1CCN(C2CCC(NC(=O)c3ccc(-c4ccccc4)s3)CC2)CC1 (configuration not stated)
XC50: 0.661 µM

COc1ccc2nccc(N3CCC(SCCNS(=O)(=O)c4ccc5c(c4)OCCO5)C3)c2n1 (configuration not stated)
XC50: 0.981 µM

CSc1ccc(C=CC(=O)NC(=O)c2ccccc2O)cc1
XC50: 0.289 µM

CC(C)Cn1cc(C2CCN(CCN3CCC(CNC(=O)c4ccc(-c5ccc(C#N)cc5)cc4)CC3)CC2)c2ccccc21
XC50: 0.786 µM

CCOC(=O)N1CCN(C(=O)Nc2ccc(Cl)cc2)CC1
XC50: 1.52 µM

c1cc(CNCC2CCCO2)cc(-c2ccc(-c3nc4ccccc4[nH]3)s2)c1 (configuration not stated)
XC50: 1.17 µM

O=C1OC2(CCN(C(=O)c3ccc(-n4cnnn4)cc3)CC2)CN1Cc1ccc(Cl)c(Cl)c1
XC50: 0.715 µM

Cc1cccc(NC(=O)c2ccc(C(=O)NC3CCN(CC4CCCCC4)C3)cc2)c1 (configuration not stated)
XC50: 0.923 µM

CS(=O)(=O)N(c1ccc(F)cc1)c1cc(C(=O)N[C@@H](Cc2ccccc2)[C@H](O)CNCc2cccc(C(F)(F)F)c2)cc(N2CCCC2=O)c1
XC50: 1.35 µM

COc1ccc(O)c(C(=O)NCCc2ccc(OC)c(-c3ccc(C(C)(C)C)cc3)c2)c1
XC50: 1.03 µM

N#Cc1cccc(C(=O)Nc2cccc(-c3ccc(C(=O)Nc4cccnc4)cc3)c2)c1
XC50: 0.693 µM

COc1ccc(C(O)CNC(C)CCc2ccccc2)cc1C(F)(F)F (configuration not stated)
XC50: 0.0704 µM

Oc1ccc(CCNc2nc(NCc3ccc4cc(Cl)ccc4c3)nc(N3CCNCC3)n2)cc1
XC50: 1.02 µM

CCN(CC)CCCN(CCCN(CC)CC)c1cc(C)nc(Nc2ccc3cc(Br)ccc3c2)n1
XC50: 0.567 µM

CN(C)CCOc1ccc(N2CCN(CCCCNC(=O)c3ccc(NC(=O)c4ccc(Cl)cc4)cc3)CC2)cc1
XC50: 0.826 µM

CC(C)C[C@H](NC(=O)c1cc(-c2ccc(C(C)(C)C)cc2)no1)C(=O)O.CC(C)C[C@H](NC(=O)c1conc1-c1ccc(C(C)(C)C)cc1)C(=O)O
XC50: 0.186 µM

COc1ccc(C(=O)Nc2ccc(-c3ccc([N+](=O)[O-])cc3)cc2)cc1CCCN(C)C
XC50: 0.803 µM

COc1cc(C(=O)NCc2nn(CCN3CCC(N4CCCC4)CC3)cc2-c2ccc(Cl)c(Cl)c2)cc(OC)c1OC
XC50: 0.774 µM

O=C(Nc1cccc(-c2nn3ccccc3c2-c2ccnc(Nc3ccc(C(=O)N4CCOCC4)cc3)n2)c1)c1c(F)cccc1F
XC50: 0.383 µM

OC1CCN(c2cc(-c3ccccn3)nc(-c3ccccn3)n2)CC1
XC50: 1.05 µM

O=C(Nc1ccccc1)N(Cc1ccc(-c2cccc(CNC3CCCC3)c2)cc1)C1CCN(Cc2ccccc2)CC1
XC50: 0.427 µM

Cc1ccccc1Cc1cccc(/N=C(\N)Nc2ccc(Cl)cc2)n1
XC50: 0.676 µM

Fc1cccc(Nc2nc(NCc3ccc(Cl)c(Cl)c3)nc(Nc3cccc(F)c3)n2)c1
XC50: 0.748 µM

NC(CC1CC(=O)N1CC(=O)O)C(=O)O (configuration not stated)
XC50: 0.156 µM

O=S(=O)(c1c(Cl)cc(Cl)cc1Cl)N1CCCCC(c2ccc(C(F)(F)F)cc2)=N1
XC50: 0.095 µM

Cc1cccc(CC(=N)NCCCCCCNC(=N)Cc2cccc(C)c2)c1
XC50: 0.167 µM

Cc1cc(NC(=O)Nc2ccc(C#N)cc2)c2ccccc2n1
XC50: 0.567 µM

COc1cc(NC(=O)/C=C/c2ccccc2Cl)cc(OCCN2CCC(O)(c3ccccc3)CC2)c1
XC50: 0.174 µM
